The test system of this experiment is resistant strain of Pythium sp. As to the kind of experiment: In vitro sensitivity of a resistant strain of Pythium sp. (mycelium growth, optical density at 590 nm). The format is cell-based. The conditions noted are these: 168 h, 500 spores/mL, 7 days at 20° C., read-out: EC50 (effective concentration of the active ingredient which reduces the growth of the phytopathogen by 50%).

Converted amounts (≈) assume the structure as drawn.

Turning to `CCCCCCCCO` [octanol, octan-1-ol], the EC50 stood at 1.3 ng/mL (≈ 9.98 nM).

Values taken from patent US20170049100A1 (priority 2014, published 2017).
